Data on 22 molecules can be found in ChEMBL document CHEMBL1157868, “Synthesis and antiviral activity of an imidazo[1,2-a]pyrrolo[2,3-c]pyridine series against the bovine viral diarrhea virus” (Eur J Med Chem, 2010).

Data set [1] in a line: Selectivity index, CC50 for MDBK cells to EC50 for Bovine viral diarrhea virus. The format is toxicity, cell-based. The settings on record: cattle, read-out: Ratio CC50/EC50.
For data set [2], the system named is Bovine viral diarrhea virus 1. The data set is described as follows: Antiviral activity against Bovine viral diarrhea virus infected in MDBK cells assessed as protection against virus-induced cytopathogenicity after 5 days. The format is functional, organism-based. The settings on record: Bovine viral diarrhea virus isolates and strains, 120 h.
Data set [3] in a line: Cytotoxicity against MDBK cells. The format is cell-based, Bos taurus. The settings on record: cattle.

A word on the EC50: it is the midpoint of the concentration-response curve. In general, CC50 refers to the concentration that lowers cell viability or growth by half. On to `CCOC(=O)c1cc2c(ccn3cc(CN(C)C)nc23)[nH]1`, for which, in data set [1], the selectivity ratio is > 2.2. In addition, the EC50 in data set [2] came out at 46.5 µM. Besides, in data set [3], the CC50 is > 100 µM.

For the molecule `CCOC(=O)c1cc2c(ccn3cc(C(C)C)nc23)[nH]1`, the selectivity ratio in data set [1] is > 4.3. For the same molecule, the EC50 in data set [2] worked out at 23.1 µM. Also, in data set [3], the CC50 is > 100 µM.

`CCOC(=O)c1cc2c(ccn3cc(C=O)nc23)[nH]1`: the selectivity ratio in data set [1] was > 4.6. Moreover, the EC50 in data set [2] turned out to be 21.8 µM. Besides, the CC50 in data set [3] is > 100 µM.

On to `CCOC(=O)c1cc2c(ccn3ccnc23)[nH]1`, for which the selectivity ratio in data set [1] is > 20. Moreover, the EC50 in data set [2] amounted to 5 µM. Also, in data set [3], the half-maximal cytotoxic concentration (CC50) was > 100 µM.

In the case of `CCOC(=O)c1cc2c(ccn3cc(C(C)(C)C)nc23)[nH]1`, in data set [1], the selectivity ratio was > 2. Moreover, the EC50 in data set [2] worked out at 50.3 µM. In addition, the CC50 in data set [3] was > 100 µM.

Take `CCOC(=O)c1cc2c(ccn3c(Br)c(C)nc23)[nH]1`: the selectivity ratio in data set [1] was > 1.3. Besides, in data set [2], the 50% effective concentration (EC50) came to 78.9 µM. Further, in data set [3], the half-maximal cytotoxic concentration (CC50) was > 100 µM.

For the molecule `CCOC(=O)c1cc2c(ccn3cc(C)nc23)[nH]1`, in data set [1], the selectivity ratio was > 47.6. Moreover, the concentration giving a half-maximal response (EC50) in data set [2] turned out to be 2.1 µM. Moreover, the half-maximal cytotoxic concentration (CC50) in data set [3] was > 100 µM.

On to `CCOC(=O)c1cc2c(ccn3c(Br)cnc23)[nH]1`, for which, in data set [1], the selectivity ratio is > 7.1. Besides, the 50% effective concentration (EC50) in data set [2] came out at 14.1 µM. The cytotoxic concentration (CC50) in data set [3] is > 100 µM.

With `Cc1cn2ccc3[nH]c(C(=O)O)cc3c2n1`, in data set [1], the selectivity ratio was > 19.6. Besides, the EC50 in data set [2] was found to be 5.1 µM. The CC50 in data set [3] was > 100 µM.

`CCCCOC(=O)c1cc2c(ccn3cc(C)nc23)[nH]1`: in data set [1], the selectivity ratio stood at 41.8. The 50% effective concentration (EC50) in data set [2] is 2.1 µM. The molecule also displayed a 50% cytotoxic concentration (CC50) in data set [3] of 89.8 µM.

Consider `CCOC(=O)c1cc2c(ccn3cc(CO)nc23)[nH]1`, for which the selectivity ratio in data set [1] is > 1.9. In addition, in data set [2], the EC50 was 53.8 µM. For the same molecule, the 50% cytotoxic concentration (CC50) in data set [3] was > 100 µM.

Take `CCOC(=O)c1cc2c(ccn3cc(C(OCC)OCC)nc23)[nH]1`: in data set [1], the selectivity ratio was found to be 46.6. Further, the half-maximal effective concentration (EC50) in data set [2] was determined as 2.1 µM. Besides, in data set [3], the CC50 amounted to 99.2 µM.

For `CCOC(=O)c1cc2c(ccn3cc(CCl)nc23)[nH]1`, the selectivity ratio in data set [1] was > 2.1. Moreover, the EC50 in data set [2] was determined as 47.6 µM. Also, the CC50 in data set [3] was > 100 µM.

For the molecule `COC(=O)c1cc2c(ccn3cc(C)nc23)n1C`, the selectivity ratio in data set [1] is > 60.6. Besides, in data set [2], the 50% effective concentration (EC50) amounted to 1.7 µM. The cytotoxic concentration (CC50) in data set [3] is > 100 µM.

Consider `CCOC(=O)c1cc2c(ccn3cc(C(F)(F)F)nc23)[nH]1`, for which, in data set [1], the selectivity ratio was > 7.8. For the same molecule, the EC50 in data set [2] worked out at 12.8 µM. Besides, the CC50 in data set [3] is > 100 µM.

As for `COC(=O)c1cc2c(ccn3cc(C)nc23)[nH]1`, the selectivity ratio in data set [1] is > 87.2. In data set [2], the 50% effective concentration (EC50) is 1.1 µM. Further, the half-maximal cytotoxic concentration (CC50) in data set [3] was > 100 µM.

As to `CCOC(=O)c1cc2c(ccn3cc(-c4ccccc4)nc23)[nH]1`, in data set [1], the selectivity ratio is > 27.1. For the same molecule, in data set [2], the concentration for a half-maximal effect (EC50) stood at 3.7 µM. Also, in data set [3], the cytotoxic concentration (CC50) is > 100 µM.

In the case of `Cc1cn2ccc3[nH]c(CO)cc3c2n1`, in data set [1], the selectivity ratio was > 2.3. Also, the concentration giving a half-maximal response (EC50) in data set [2] stood at 43.9 µM. Also, in data set [3], the 50% cytotoxic concentration (CC50) was > 100 µM.

Turning to `CCOC(=O)c1cc2c(ccn3cc(-c4cccc(OC)c4)nc23)[nH]1`, the selectivity ratio in data set [1] turned out to be 71. Besides, in data set [2], the EC50 was 0.4 µM. This molecule registered a CC50 in data set [3] of 31.1 µM.

In the case of `CCOC(=O)c1cc2c(ccn3c([N+](=O)[O-])c(C)nc23)[nH]1`, in data set [1], the selectivity ratio is > 1.5. The 50% effective concentration (EC50) in data set [2] was found to be 64.8 µM. Moreover, the CC50 in data set [3] was > 100 µM.

In the case of `CCOC(=O)c1cc2c(ccn3cc(C)nc23)n1C`, the selectivity ratio in data set [1] is > 17.9. In addition, the 50% effective concentration (EC50) in data set [2] was determined as 5.6 µM. Also, the CC50 in data set [3] was > 100 µM.

Take `CCOC(=O)c1cc2c(ccn3cc(Br)nc23)[nH]1`: the selectivity ratio in data set [1] is > 7.6. In data set [2], the EC50 is 13.1 µM. In data set [3], the cytotoxic concentration (CC50) was > 100 µM.
